The text below walks through data of patent publication US8080252B2, “Compounds and methods of modulating angiogenesis” (The Cleveland Clinic Foundation, priority 2006, dated 2011).

One test deals with β3 integrin. Nature of the test: β3 integrin tyrosine phosphorylation (Tyr-747 and 759) in HUVECs, Western blot. Format: cell-based, Human. The following applies: adherent endothelial cells plated on vitronectin. As to the method:
αvβ3 integrin is expressed on proliferating endothelial cells during angiogenesis and vascular remodeling and the blockade of αvβ3 integrin suppressed angiogenesis in several in vivo models. Therefore, we assessed whether the blockade of αvβ3 affected tyrosine phosphorylation of β3 subunit. […] Cells were also treated with non-immune IgG as control. These cells were washed and further induced with VEGF for 5 min at 37° C. Cell lysates were analyzed for phosphorylation of β3 integrin (Tyr-747 and 759). […] Basal level of β3 integrin tyrosine phosphorylation remains unaffected irrespective of different blocking antibody treatment. To further examine consequences of αvβ3 integrin blocking antibodies, cell lysates were analyzed for tyrosine phosphorylation of VEGFR-2 (Tyr-1175).
Cytoplasmic domains of integrin β subunits are highly conserved and represents region of structural homology between the various groups. […] Cell lysates were analyzed for the phosphorylation of β3 integrin. […]
Cells were lysed in immunoprecipitation lysis buffer (1% Noniodet P-40, 150 mM NaCl, 50 mM Tris-HCL (pH 7.8), 2 mM EDTA, 10 mM NaF, 10 mM Na2P2O7, 2 mM Na3VO4 10 μg/mL leupeptin, 4 μg/mL pepstatin and 0.1 U/mL aprotinin). […] Bands were analyzed by densitomeric analysis using Kodak 1D software and fold changes were indicated.

A further test addresses T1, c-Src (Homo sapiens, UniProt P12931).
T1 construct: c-Src was immunoprecipitated from VEGF-stimulated HUVEC; endogenous in cells; host or cells: HUVEC (immunoprecipitate)
Nature of the test: In vitro kinase assay, c-Src phosphorylation of β3 integrin cytoplasmic domain or peptides. The class given is biochemical. The following applies: [γ-32P] ATP incorporation. The text has this:
Principle mechanism by which integrins appear to mediate the transfer of information from extracellular environment to intracellular milieu is through phosphorylation of β-subunit at cytoplasmic tyrosine motifs. Ligand occupancy of αvβ3 is a prerequisite for the tyrosine phosphorylation events and implying an important role for outside-in integrin signaling in this process. To examine whether c-Src can directly mediate β3 integrin tyrosine phosphorylation, c-Src was immunoprecipitated from VEGF-stimulated HUVEC. Immunocomplex were incubated with a full-length purified β3 integrin cytoplasmic domain, and [γ-^32P] ATP incorporation into was monitored. […] Recombinant purified c-Src also phosphorylated the β3 integrin whereas no phosphorylation was observed without the substrate, indicating the specificity of the reaction (lane 1 and 5). […] To further investigate whether c-Src phosphorylates Tyr-747 or Tyr-759 of β3 integrin or both residues, kinase assay were performed using peptide derived from these two distinct sites of β3 integrin as substrates (FIG. 20 E). […] In the presence of Tyr-747/Tyr-759 β3 integrin cytoplasmic peptide, a dramatic increase in [γ-^32P] ATP incorporation was observed as compared to control peptides devoid of tyrosine motifs. Similar results were observed using purified recombinant c-Src protein. As anticipated, [γ-^32P] […]

The test system of test [1] is HUVECs. Nature of the test: Cell adhesion assay of HUVECs on vitronectin (Example 5). Format: cell-based, Human. As to the method:
Cells were washed twice with sterile PBS and re-suspended in DMEM. The cell suspensions were added to ligand-coated wells and placed in humidified incubator for 45 min. Wells were gently washed three times with DMEM and photographs were taken. The numbers of attached and spread cells per field were counted.

Test [2] deals with HUVECs. In words: Cell migration assay of HUVECs on vitronectin, VEGF as agonist (Example 5). Format: cell-based, Human. The following applies: vitronectin as substrate.
Procedure: To assess the role of Src-mediated β3 integrin tyrosine phosphorylation in αvβ3 integrin dependent EC migration, HUVECs transfected with various forms of Src were evaluated in migration assays using VEGF as an agonist and vitronectin as a substrate. […] To further evaluate the c-Src mediated β3 integrin cytoplasmic tyrosine motifs phosphorylation in αvβ3 integrin dependent endothelial cell migration, wild type and DiYF mouse lung microvascular endothelial cells were transfected with wild type, dominant negative and catalytically active form of c-Src and stimulated with VEGF (FIG. 23 B).
Transwell tissue culture inserts were coated with αvβ3 integrin ligand vitronectin for 24 h at 4° C. Endothelial cells were transfected with various forms of c-Src or treated with inhibitors and were trypsinized; then 1×10^5 cells were added into each well. Cells were allowed to migrate for 12 h and fixed with 70% methanol for 15 min and stained with Giemsa. The non-migrated cells adhered to the top surface were removed and three random 10× fields were photographed using an inverted phase contrast microscopy.
Test [3] deals with angiogenesis in VEGF-A-containing Matrigel. In words: Matrigel plug assay, neovascularization by hemoglobin assay (Example 4). The class given is in vivo. Particulars: 50 mM peptide in 500 μL Matrigel with VEGF (60 ng/mL) and heparin, subcutaneous, 7 days, C57/Bl6 mice. The method, then:
Matrigel plug assays were performed in age- and sex-matched C57/Bl6 background mice. Each animal received an abdominal subcutaneous injection of 500 μL Matrigel mixed with VEGF (60 ng/mL), heparin (60 units/mL) and 50 mM of control ([…] G DTANNPL […]-COOH) (SEQ ID NO: 14) or beta-3 integrin cytoplasmic domain inhibitory peptide ([…] G DTANNPL Yp […]-COOH) (SEQ ID NO: 2). After 7 days, the animals were euthanized and dissected. Matrigel plugs were removed and digested using 5 mL Drabkin reagent and neovascularization was assessed using a hemoglobin assay as per the manufacturer's protocol (FIG. 16).

Non-standard residues stand in square brackets, D forms with d. No end group written: not given here. pY = N[C@@H](Cc1ccc(OP(=O)(O)O)cc1)C(=O)O

T1 sequence (P12931 whole entry): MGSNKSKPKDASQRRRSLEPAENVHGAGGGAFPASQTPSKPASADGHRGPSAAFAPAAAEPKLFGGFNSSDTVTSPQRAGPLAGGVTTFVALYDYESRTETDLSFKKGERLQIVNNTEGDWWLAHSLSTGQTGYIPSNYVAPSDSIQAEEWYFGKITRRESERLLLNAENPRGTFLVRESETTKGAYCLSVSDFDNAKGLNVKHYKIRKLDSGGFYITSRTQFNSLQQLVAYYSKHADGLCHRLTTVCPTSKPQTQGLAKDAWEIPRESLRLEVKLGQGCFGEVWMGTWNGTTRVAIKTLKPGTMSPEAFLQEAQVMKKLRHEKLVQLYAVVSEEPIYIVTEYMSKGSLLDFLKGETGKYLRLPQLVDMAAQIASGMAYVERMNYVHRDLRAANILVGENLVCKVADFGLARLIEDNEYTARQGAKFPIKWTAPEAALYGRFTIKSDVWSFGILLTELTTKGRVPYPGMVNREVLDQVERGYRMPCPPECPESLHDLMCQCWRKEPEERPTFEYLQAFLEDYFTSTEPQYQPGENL

For the compound `CN(C)S(=O)(=O)c1ccc2c(c1)C(=Cc1cc3c([nH]1)CCCC3)C(=O)N2` [SU6656, 2-oxo-3(4,5,6,7-tetrahydro-1-H-indol-2-ylmethylene)-2,3-dihydro-1H-indole-5-sulfonic acid dimethylamide], the “effect on β3 integrin tyrosine phosphorylation” value with β3 integrin is recorded as “completely blocked”. Besides, on c-Src, the “effect on phosphorylation of β3 integrin cytoplasmic domain by immunoprecipitated c-Src” value is reported as “blocked this process”. Also, the “effect on cell adhesion to vitronectin” value with HUVECs [1] is “caused impairment of cell adhesion to vitronectin”. The “effect on EC migration triggered by VEGF” value in the test on HUVECs [2] is “reduced EC migration triggered by VEGF”.
As for “YGRKKRRQRRR G DTANNPL Yp KEATSTFT-COOH (YGRKKRRQRRRGDTANNPL[pY]KEATSTFT-OH; N-terminus assumed; SMILES CC(C)C[C@H](NC(=O)[C@@H]1CCCN1C(=O)[C@H](CC(N)=O)NC(=O)[C@H](CC(N)=O)NC(=O)[C@H](C)NC(=O)[C@@H](NC(=O)[C@H](CC(=O)O)NC(=O)CNC(=O)[C@H](CCCNC(=N)N)NC(=O)[C@H](CCCNC(=N)N)NC(=O)[C@H](CCCNC(=N)N)NC(=O)[C@H](CCC(N)=O)NC(=O)[C@H](CCCNC(=N)N)NC(=O)[C@H](CCCNC(=N)N)NC(=O)[C@H](CCCCN)NC(=O)[C@H](CCCCN)NC(=O)[C@H](CCCNC(=N)N)NC(=O)CNC(=O)[C@@H](N)Cc1ccc(O)cc1)[C@@H](C)O)C(=O)N[C@@H](Cc1ccc(OP(=O)(O)O)cc1)C(=O)N[C@@H](CCCCN)C(=O)N[C@@H](CCC(=O)O)C(=O)N[C@@H](C)C(=O)N[C@H](C(=O)N[C@@H](CO)C(=O)N[C@H](C(=O)N[C@@H](Cc1ccccc1)C(=O)N[C@H](C(=O)O)[C@@H](C)O)[C@@H](C)O)[C@@H](C)O; listed as Homo sapiens) [SEQ ID NO: 2]”, the “hemoglobin concentration in Matrigel plugs, fold lower compared to control peptide” value in test [3] is given as “at least 3.5 fold”.
